Assay results as given in PMC8509980 (Chinese Medical Journal, 2021).

Biological target: T1, sineoculis homeobox homolog 1 (SIX1) (Homo sapiens, UniProt Q15475)
T1 sequence (Q15475 1-284): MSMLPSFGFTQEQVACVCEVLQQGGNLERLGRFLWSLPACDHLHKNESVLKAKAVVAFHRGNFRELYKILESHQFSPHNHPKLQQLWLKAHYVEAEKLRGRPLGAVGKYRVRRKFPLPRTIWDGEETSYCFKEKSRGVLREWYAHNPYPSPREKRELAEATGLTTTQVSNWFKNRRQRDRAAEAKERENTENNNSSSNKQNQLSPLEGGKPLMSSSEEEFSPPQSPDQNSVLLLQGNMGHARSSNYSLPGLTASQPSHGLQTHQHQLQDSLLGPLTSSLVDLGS
T1 sequence (Q99502 1-592 partner): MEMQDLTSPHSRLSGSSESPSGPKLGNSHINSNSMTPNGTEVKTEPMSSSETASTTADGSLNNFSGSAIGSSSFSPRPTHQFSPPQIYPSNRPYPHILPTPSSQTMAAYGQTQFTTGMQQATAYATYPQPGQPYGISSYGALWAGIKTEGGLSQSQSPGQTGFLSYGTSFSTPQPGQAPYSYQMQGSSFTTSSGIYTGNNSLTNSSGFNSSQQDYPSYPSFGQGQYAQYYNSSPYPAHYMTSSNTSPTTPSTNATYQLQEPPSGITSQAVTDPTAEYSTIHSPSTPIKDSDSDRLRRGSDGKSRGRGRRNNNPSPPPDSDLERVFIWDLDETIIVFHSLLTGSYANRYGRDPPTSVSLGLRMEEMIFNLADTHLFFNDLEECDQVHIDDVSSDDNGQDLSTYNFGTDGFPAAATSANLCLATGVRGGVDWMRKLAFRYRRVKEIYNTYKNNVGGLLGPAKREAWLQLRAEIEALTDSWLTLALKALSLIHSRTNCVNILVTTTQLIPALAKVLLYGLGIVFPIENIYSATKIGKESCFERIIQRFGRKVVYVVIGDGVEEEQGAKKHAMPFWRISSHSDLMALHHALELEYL
Test: AlphaScreen disruption of purified GST-SIX1/His-EYA1 interaction
Type: binding

Substance | IC50
NSC0191 | 12.6 ± 1.15 µM
NSC0933 | 83.4 ± 7.24 µM
